Assay results published in US9883996B2, “Methods and compositions for enhancing skin pigmentation” (THE GENERAL HOSPITAL CORPORATION, priority 2014, dated 2018).
“Also recorded” adds a separate entry of the source.

What was measured:
[1] = system: Dermal Fibroblasts; test: Toxicity via ATP-based assay (Cell titer glow); details: ATP-based assay 2 days after start of treatment
[2] = system: Melanocytes 1; test: Toxicity via ATP-based assay (Cell titer glow); details: ATP-based assay 2 days after start of treatment
Description: (§1) Three different NNT inhibitors were tested for efficacy and toxicity in melanocytes and melanoma cells. […] Toxicity measured via ATP-based assays (Cell titer glow) 2 days after start of treatment.

[3] = system: Melanocytes 2; test: Toxicity via ATP-based assay (Cell titer glow); details: ATP-based assay 2 days after start of treatment
Description: as §1

[4] = system: human skin explants; test: H&E staining of treated skin samples (inflammation, skin damage); format: cell-based; details: 50 mM, skin patches
[5] = system: Melan-A cells; test: Measurement of eumelanin in murine melanocytes; format: cell-based
[6] = system: human skin explants; test: Pigmentation of human skin explants treated topically or intradermally with NNT inhibitors (visual inspection, colorimeter, Fontana-Masson staining); format: cell-based; details: for microscopic pigmentation / eumelanin, Fontana-Masson staining: 50 mM, once per day for 5 consecutive days; for human skin pigmentation (darkening): daily application for 5 days
Description: Human skin explants obtained from subjects undergoing abdominoplasty were defatted and grown on 2% agar plates for 10 days. These explants were treated topically or intradermally with NNT inhibitors. […]
In addition, skin patches (Fitzpatrick Type II) were topically treated for 4 days with 2,3 butane-dione at the following concentrations: 0.4% w/v (˜47 mM), 0.8% w/v, 1.6% w/v, 3.12% w/v, 6.25% w/v, 12.5% w/v, and 25% w/v.

[7] = system: Keratinocytes; test: Toxicity via ATP-based assay (Cell titer glow); details: ATP-based assay 2 days after start of treatment
[8] = system: human skin; test: Cyclobutane dimer (CPD) staining of treated human skin, DNA damage; format: cell-based; details: 50 mM once per day for 5 days; for CPD formation after UVB irradiation: then 1000 mJ/cm^2 UVB, vs DMSO+UVB control
Description: Cyclobutane dimer (CPD) staining was performed on human skin treated with 50 mM 2,3butanedione for 5 consecutive days (treatment once per day) as a marker to assess DNA damage in the skin samples. On the fifth day, skin was irradiated with 1000 mJ/cm^2 UVB (equivalent to approximately 3 h in the sun at equatorial areas).

[9] = system: UACC257 melanoma cells; test: GSH/GSSG measurements after DCC treatment; format: cell-based, human; details: 3 days after DCC treatment
Description: (§2) FIGS. 7A-7C show GSH/GSSG ratios 3 days after N,N-Dicyclohexylcarbodiimide (DCC) treatment. To confirm the observation by Moody et al. (Biochem J., 1983) that DCC and Butanedione inhibit NNT enzyme activity, GSH/GSSG measurements were performed in human melanoma and primary melanocytes. […] FIG. 7A, GSH and GSSG measurements in UACC257 melanoma cells. FIG. 7B, GSH and GSSG measurements in primary melanocytes (PM) WM26 cells. FIG. 7C, GSH/GSSG ratios of UACC257 melanoma and […] primary melanocytes. *, indicates significant differences (p<0.05).
(§3) In one embodiment GSH/GSSG ratios are determined using the GSH/GSSG-GLO assay commercially available from PROMEGA.

[10] = system: primary melanocytes (PM) WM26 cells; test: GSH/GSSG measurements after DCC treatment; format: cell-based, human; details: primary melanocytes WM26, 3 days after DCC treatment
Description: as §2, §3

[11] = system: WM26 primary melanocytes; test: BrdU ELISA toxicity; format: cell-based, human; details: 3 days after treatment
Description: (§4) FIGS. 8A-8B show BrdU ELISA data 3 days after DCC treatment.
(§5) In one embodiment, the viability of a cell or the proliferation of a cell is determined using a bromodeoxyuridine (BrdU) assay. BrdU is a synthetic analog of thymidine that is commonly used in the detection of proliferating cells in living tissues. BrdU can be incorporated into the newly synthesized DNA of replicating cells (during the S phase of the cell cycle), substituting for thymidine during DNA replication. Antibodies specific for BrdU can then be used to detect the incorporated chemical, thus indicating cells that were actively replicating their DNA. BrdU assays are well known to those of skill in the art and are not described in detail herein. In some embodiments, an ATP=based measurement can be used (e.g., Cell Titer Glow™).

[12] = system: UACC 257 melanoma; test: BrdU ELISA toxicity; format: cell-based, human; details: 3 days after treatment
Description: as §4, §5

CC(=O)C(C)=O [2,3 Butanedione, 2,3-butanedione]
IC50 ([1]; Fibroblast, 48 h): > 10 µM
IC50 ([2]; Melanocyte, 48 h): > 10 µM
IC50 ([3]; Melanocyte, 48 h): > 10 µM
inflammation or skin damage, H&E staining [4]: no inflammation was observed
inflammation or skin damage, H&E staining ([4]; listed as 2,3 BD): No significant inflammation or skin damage
pigmentation (eumelanin) ([5]; 2 mM): increased pigmentation
pigmentation (eumelanin) ([5]; 10 mM): increased pigmentation
microscopic pigmentation / eumelanin, Fontana-Masson staining [6]: increase in eumelanin expression
microscopic pigmentation / eumelanin, Fontana-Masson staining ([6]; listed as 2,3 BD): significant microscopic pigmentation
pigmentation compared with one-time UV-B treatment at 150 mJ/cm^2 ([6]; Fitzpatrick Type II skin patches, topical 4 days, lowest concentration 0.4% w/v (~47 mM)): darker than the pigmentation induced by a one-time UV-B treatment
pigmentation with increasing concentrations ([6]; Skin type 2 (Fitzpatrick Scale) explant, in DMSO): increase pigmentation
lowest dose at which visible changes in skin pigmentation were observed ([6]; once per day for five consecutive days, all three skin types (Fitzpatrick I-II, III-IV, V-VI), lowest dose tested): 1.2 µM
human skin pigmentation (darkening) ([6]; topical, human skin explants): visible increase of human skin pigmentation
human skin pigmentation (darkening) ([6]; topical, human skin explants, listed as 2,3 BD): significant darkening
IC50 ([7]; Keratinocyte, 48 h): > 10 µM
CPD formation after UVB irradiation ([8]; listed as 2, 3, butanedione): decrease in CPD
CPD formation after UVB irradiation ([8]; listed as 2,3BD): protective role
CPD formation in the absence of UV radiation exposure ([8]; vs DMSO treated control): decrease in CPD formation

C(=NC1CCCCC1)=NC1CCCCC1 [DCC, N,N-Dicyclohexylcarbodiimide]
IC50 [1]: > 10 µM
GSH/GSSG ratios [9]: decreased in a dose-dependent manner
GSH/GSSG ratios [10]: decreased in a dose-dependent manner
IC50 [2]: > 10 µM
IC50 [3]: > 10 µM
cell death (BrdU ELISA) [11]: no significant induction of cell death
cell death (BrdU ELISA) [12]: no significant induction of cell death
pigmentation (eumelanin) ([5]; 10 mM): increased pigmentation
human skin pigmentation (darkening) ([6]; topical, human skin explants): significant darkening; also recorded: visible increase of human skin pigmentation
IC50 [7]: > 10 µM

CCCCCCCCCCCCCCCC(=O)SCCNC(=O)CCNC(=O)[C@H](O)C(C)(C)COP(=O)(O)OP(=O)(O)OC[C@H]1O[C@@H](n2cnc3c(N)ncnc32)[C@H](O)[C@@H]1OP(=O)(O)O [Palmitoyl-CoA, palmitoyl CoA]
IC50 ([1]; Fibroblast, 48 h): > 10 µM
IC50 ([2]; Melanocyte, 48 h): > 10 µM
IC50 ([3]; Melanocyte, 48 h): > 10 µM
skin darkening after intradermal treatment ([6]; intradermal, human skin explants): induced darkening
skin penetration after topical application ([6]; topical, human skin explants): unable to penetrate
IC50 ([7]; Keratinocyte, 48 h): > 10 µM
